“Also recorded” adds a separate entry of the source. Structures can show the parent of a compound that is named as a salt. Where two headings read alike, the source gives them in different places.
How the values were obtained:
[1] = target: T1, human κ opioid receptor (Homo sapiens, UniProt P41145); test: biochemical; type: biochemical; details: for δ/κ: selectivity for κ relative to δ
[2] = target: T2, human δ opioid receptor (Homo sapiens, UniProt P41143); test: biochemical
[3] = target: T2, human δ opioid receptor; details: cloned human receptor, cited from earlier work
[4] = target: T1, human κ opioid receptor; details: cloned human receptor, cited from earlier work
[5] = target: T3, human μ opioid receptor (Homo sapiens, UniProt P35372); test: biochemical
T3 sequence (P35372 whole entry): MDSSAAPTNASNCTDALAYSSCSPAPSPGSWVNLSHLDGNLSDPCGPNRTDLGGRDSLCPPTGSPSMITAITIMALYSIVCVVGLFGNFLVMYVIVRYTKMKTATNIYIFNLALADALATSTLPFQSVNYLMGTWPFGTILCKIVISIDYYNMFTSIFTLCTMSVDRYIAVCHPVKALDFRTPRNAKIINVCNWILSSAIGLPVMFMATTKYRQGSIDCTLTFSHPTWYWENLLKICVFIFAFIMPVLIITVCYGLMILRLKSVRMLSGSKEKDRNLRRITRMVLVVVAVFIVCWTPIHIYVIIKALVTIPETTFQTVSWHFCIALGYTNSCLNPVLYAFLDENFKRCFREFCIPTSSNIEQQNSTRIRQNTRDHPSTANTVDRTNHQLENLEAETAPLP

[6] = Pharmacokinetics in plasma and brain after a single sc dose; type: in vivo, Male Sprague—Dawley rats; details: 5 mg/kg sc
[7] = target: T3, human μ opioid receptor; details: cloned human receptor; cited from earlier work
[8] = 5 mg/kg in male rats, cited from earlier work

T1 sequence (P41145 whole entry): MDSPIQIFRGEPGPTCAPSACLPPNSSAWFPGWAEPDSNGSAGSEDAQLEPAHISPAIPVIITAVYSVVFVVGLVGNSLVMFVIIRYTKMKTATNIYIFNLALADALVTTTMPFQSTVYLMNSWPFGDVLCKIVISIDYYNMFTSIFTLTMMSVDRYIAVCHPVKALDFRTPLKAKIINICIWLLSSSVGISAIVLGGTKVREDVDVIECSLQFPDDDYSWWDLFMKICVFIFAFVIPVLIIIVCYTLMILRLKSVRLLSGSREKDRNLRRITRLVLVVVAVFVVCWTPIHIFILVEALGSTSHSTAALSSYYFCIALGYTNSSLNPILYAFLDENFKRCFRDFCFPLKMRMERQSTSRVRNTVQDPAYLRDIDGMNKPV
T2 sequence (P41143 whole entry): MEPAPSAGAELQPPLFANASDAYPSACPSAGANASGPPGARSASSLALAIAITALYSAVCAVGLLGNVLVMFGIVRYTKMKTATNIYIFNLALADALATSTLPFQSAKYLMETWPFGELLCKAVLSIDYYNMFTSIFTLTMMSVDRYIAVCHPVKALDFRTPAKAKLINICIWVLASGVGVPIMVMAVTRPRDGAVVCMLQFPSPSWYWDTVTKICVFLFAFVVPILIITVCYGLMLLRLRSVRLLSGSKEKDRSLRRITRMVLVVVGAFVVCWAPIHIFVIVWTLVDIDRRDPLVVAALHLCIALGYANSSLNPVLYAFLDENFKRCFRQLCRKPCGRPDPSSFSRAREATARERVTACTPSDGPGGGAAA

SMILES	δ/κ ([1]; ratio of Ke values)	Kb [2] [µM]	also measured
CC(C)[C@@H](CN1CCCCC1C)NC(=O)[C@H]1Cc2ccc(O)cc2CN1 (mixture of isomers) [Compound 14, (3R)-7-Hydroxy-N-{(1S)-2-methyl-1-[((2RS)-2-methylpiperidin-1-yl)methyl]propyl}−1,2,3,4-tetrahydroisoquinoline-3-carboxamide Dihydrochloride]	>199	> 3	–
CC(C)[C@@H](CN1CCCCC1)NC(=O)[C@H]1Cc2ccc(O)cc2CN1 [Compound 1, (3R)‑7-Hydroxy‑N‑[(1S)‑2-methyl-1-(piperidin-1-ylmethyl)propyl]-1,2,3,4-tetrahydroisoquinoline-3-carboxamide]	–	–	Ke δ, DPDPE ([3]; previously reported): >3000 nM; Ke κ, U69,593 ([4]; previously reported): 6.80 ± 2.1 nM
CC(C)[C@@H](CN1CCOCC1)NC(=O)[C@H]1Cc2ccc(O)cc2CN1 [Compound 6, (3R)-7-Hydroxy-N-[(1S)-2-methyl-1-(morpholin-4-ylmethyl)-propyl]-1,2,3,4-tetrahydroisoquinoline-3-carboxamide Dihydrochloride]	–	> 3	–
CC(C)[C@@H](CN1CCN(C)CC1)NC(=O)[C@H]1Cc2ccc(O)cc2CN1 [Compound 7, (3R)-7-Hydroxy-N-{(1S)-2-methyl-1-[(4-methylpiperizin-1-yl)-methyl]propyl}−1,2,3,4-tetrahydroisoquinoline-3-carboxamide Trihydrochloride]	>30	> 3	–
CCN(CC)C[C@@H](NC(=O)[C@H]1Cc2ccc(O)cc2CN1)C(C)C [Compound 8, (3R)-N-{(1S)-1-[(4,4-Diethylamino)methyl]-2-methylpropyl]-7-hydroxy-1,2,3,4-tetrahydroisoquinoline-3-carboxamide Dihydrochloride]	>72	> 3	Kb [1]: 0.0418 ± 0.012 µM; Kb [5]: 0.69 ± 0.11 µM
CC(C)CN(CC(C)C)C[C@@H](NC(=O)[C@H]1Cc2ccc(O)cc2CN1)C(C)C [Compound 10, (3R)-N-{(1S)-1-{[Bis(2-methylpropyl)amino]methyl}−2-methyl-propyl]-7-hydroxy-1,2,3,4-tetrahydroisoquinoline-3-carboxamide Dihydrochloride]	–	> 3	–
CC1CCN(C[C@@H](NC(=O)[C@H]2Cc3ccc(O)cc3CN2)C(C)C)CC1 [Compound 12, (3R)-7-Hydroxy-N-{(1S)-2-methyl-1-[(4-methylpiperidin-1-yl)-methyl]propyl}−1,2,3,4-tetrahydroisoquinoline-3-carboxamide Dihydrochloride]	–	> 3	persistence in plasma and brain post dose ([6]; last sampling time): 168 h; clearance ([6]; plasma): 43.75 mL/min/kg; brain penetration ([6]; rats, 5 mg/kg): does indeed penetrate the brain; also recorded: crossed the blood—brain barrier; also recorded: did indeed readily penetrate the brain
CC(C)[C@@H](CN1CCC(C)(C)CC1)NC(=O)[C@H]1Cc2ccc(O)cc2CN1 [Compound 18, (3R)-N-{(1S)-1-[(4,4-Dimethylpiperidin-1-yl)methyl]-2-methylpropyl}−7-hydroxy-1,2,3,4-tetrahydroisoquinoline-3-carboxamide Dihydrochloride]	–	–	Kb [1]: 0.00357 ± 0.0015 µM
CC(C)[C@@H](CN1CCC(C(F)(F)F)CC1)NC(=O)[C@H]1Cc2ccc(O)cc2CN1 [Compound 20, (3R)-7-Hydroxy-N-[(1S)-2-methyl-1-{[4-(trifluoromethyl)-piperidin-1-yl]methyl}propyl]-1,2,3,4-tetrahydroisoquinoline-3-carboxamide Dihydrochloride]	>640	> 3	–
COC1CCN(C[C@@H](NC(=O)[C@H]2Cc3ccc(O)cc3CN2)C(C)C)CC1 [Compound 22, (3R)-7-Hydroxy-N-{(1S)-2-methyl-1-[(4-methoxypiperidin-1-yl)-methyl]propyl}−1,2,3,4-tetrahydroisoquinoline-3-carboxamide Dihydrochloride]	>459	> 3	–
CC(C)[C@@H](CN1CCC(N(C)C)CC1)NC(=O)[C@H]1Cc2ccc(O)cc2CN1 [Compound 23, (3R)-N-[(1S)-1-{[4-(Dimethylamino)piperidin-1-yl]methyl}−2-methylpropyl]-7-hydroxy-1,2,3,4-tetrahydroisoquinoline-3-carboxamide Trihydrochloride]	>371	> 3	–
CC(C)[C@@H](CN1CCC(F)(F)CC1)NC(=O)[C@H]1Cc2ccc(O)cc2CN1 [Compound 24, (3R)-N-{[(1S)-1-[4,4-Difluoropiperidin-1-yl]methyl]-2-methyl-propyl}−7-hydroxy-1,2,3,4-tetrahydroisoquinoline-3-carboxamide Dihydrochloride]	>254	> 3	–
CC(C)[C@@H](CN1CCC(C#N)CC1)NC(=O)[C@H]1Cc2ccc(O)cc2CN1 [Compound 25, (3R)-N-{(1S)-1-[(4-Cyanopiperidin-1-yl)methyl]-2-methylprolyl}−7-hydroxy-1,2,3,4-tetrahydroisoquinoline-3-carboxamide Dihydrochloride]	>236	> 3	–
CC(C)[C@@H](CN1CCC(C(N)=O)CC1)NC(=O)[C@H]1Cc2ccc(O)cc2CN1 [Compound 26]	>932	> 3	–
CC1CCN(C[C@@H](NC(=O)[C@H](N)Cc2ccc(O)cc2)C(C)C)CC1 [Compound 36, N-{(1S)-2-Methyl-1-[(4-methylpiperidin-1-yl)methyl]propyl}-D-ty-rosinamide Dihydrochloride]	>8	> 3	Kb [1]: 0.387 ± 0.089 µM; fold loss in κ opioid receptor antagonist potency relative to 12 [1]: over 1000; μ/κ ([1]; ratio of Ke values, selectivity for κ relative to μ): >8; Kb [5]: > 3 µM
CC(C)[C@@H](CN1CC[C@@](C)(c2cccc(O)c2)[C@@H](C)C1)NC(=O)[C@H]1Cc2ccc(O)cc2CN1C [Compound 46, reference compound]	–	–	Ke δ, DPDPE [3]: 491 ± 120 nM; Ke κ, U69,593 [4]: 0.16 ± 0.06 nM; Ke μ, DAMGO [7]: 210 ± 60 nM
CC(C)[C@@H](CN1CC[C@@](C)(c2cccc(O)c2)[C@@H](C)C1)NC(=O)[C@H]1Cc2ccc(O)cc2CN1 [JDTic, (3R)-1,2,3,4-tetrahydro-7-hydroxy-N-[(1S)-1-[[(3R,4R)-4-(3-hydroxy-phenyl)-3,4-dimethyl-1-piperidinyl]methyl]-2-methylpropyl]-3-iso-quinolinecarboxamide]	–	–	half-life ([8]; brain): 51.8 h; half-life ([8]; plasma): 28.4 h

Source: publication PMC6692079 (Journal of medicinal chemistry, 2018)
